Tests used:
[1] = system: Pseudomonas aeruginosa; test: microbe, parasite or virus in culture; conditions: ATCC 27853, 18 h, ASSAY_TEST Inhibition of Bacterial Growth, detection method Absorption (OD600), MEDIA CAMHB, plate type 384well, NBS, CORNING #3640
Description: Antibacterial activity against Pseudomonas aeruginosa ATCC 27853 (CO-ADD:GN_042); MIC in CAMBH media using NBS plates, by OD(600)

[2] = system: Pseudomonas aeruginosa; test: Antibacterial activity against Pseudomonas aeruginosa PAO397 [PAO1 d(mexAB-oprM) d(mexCD-oprJ) d(mexEF-oprN) d(mexJKL) d(mexXY) d(opmH)] (CO-ADD:GN_211); MIC in CAMBH media using NBS plates, by OD(600); format: functional; conditions: ASSAY_TEST Inhibition of Bacterial Growth, detection method Absorption (OD600), MEDIA CAMHB, plate type 384well, CORNING #3640, time 18 hr
[3] = system: Candida albicans; test: microbe, parasite or virus in culture; conditions: ATCC 90028, ASSAY_TEST Inhibition of Fungal Growth, detection method Absorption (OD530), plate type 384well, NBS, CORNING #3640
Description: Antifungal activity against Candida albicans ATCC 90028 (CO-ADD:FG_001); MIC in YNB media using NBS plates, by OD630

[4] = system: Escherichia coli; test: microbe, parasite or virus in culture; conditions: ATCC 25922, 18 h, ASSAY_TEST Inhibition of Bacterial Growth, detection method Absorption (OD600), MEDIA CAMHB, plate type 384well, NBS, CORNING #3640
Description: Antibacterial activity against Escherichia coli ATCC 25922 (CO-ADD:GN_001); MIC in CAMBH media using NBS plates, by OD(600)

[5] = system: Cryptococcus neoformans
Description: Antifungal activity against Cryptococcus neoformans H99 ATCC 208821 (CO-ADD:FG_002); MIC in YNB media using NBS plates, by Resazurin OD(600-570)

[6] = system: Acinetobacter baumannii; test: microbe, parasite or virus in culture; conditions: ATCC 19606, 18 h, ASSAY_TEST Inhibition of Bacterial Growth, detection method Absorption (OD600), MEDIA CAMHB, plate type 384well, NBS, CORNING #3640
Description: Antibacterial activity against Acinetobacter baumannii ATCC 19606 (CO-ADD:GN_034); MIC in CAMBH media using NBS plates, by OD600

[7] = system: Staphylococcus aureus; test: microbe, parasite or virus in culture; conditions: ATCC 43300, 18 h, ASSAY_TEST Inhibition of Bacterial Growth, detection method Absorption (OD600), MEDIA CAMHB, plate type 384well, NBS, CORNING #3640
Description: Antibacterial activity against Staphylococcus aureus MRSA ATCC 43300 (CO-ADD:GP_020); MIC in CAMBH media, using NBS plates, by OD(600)

[8] = system: HEK293; test: cells; format: functional, Homo sapiens, ATCC CRL1573; conditions: Homo sapiens, ATCC CRL1573, HEK293; ASSAY_TEST Inhibition of Cell Viability; detection method Resazurin; Fluorescence (ex560/em590); MEDIA DMEM with 10% FBS; plate type 384well; TC; CORNING #3712; time 18 hr; read-out: CC50
[9] = system: Klebsiella pneumoniae; test: microbe, parasite or virus in culture; conditions: ATCC 700603, 18 h, ASSAY_TEST Inhibition of Bacterial Growth, detection method Absorption (OD600), MEDIA CAMHB, plate type 384well, NBS, CORNING #3640
Description: Antibacterial activity against Klebsiella pneumoniae MDR ATCC 70063 (CO-ADD:GN_003); MIC in CAMBH media using NBS plates, by OD(600)

CCCCN1C[C@H](O)[C@@H](O)[C@H](O)[C@H]1CO
MIC [1]: > 20 µM
MIC [2]: > 20 µM
MIC [3]: > 20 µM
MIC [4]: > 20 µM
MIC [5]: > 20 µM
MIC [6]: > 20 µM
MIC [7]: > 20 µM
CC50 [8]: > 20 µM
MIC [9]: > 20 µM

O=C(O)/C=C/C=C/c1cccc(Oc2cc(Cl)cc(Cl)c2)c1
MIC [1]: > 20 µM
MIC [2]: > 20 µM
MIC [3]: > 20 µM
MIC [4]: > 20 µM
MIC [5]: > 20 µM
MIC [6]: > 20 µM
MIC [7]: > 20 µM
CC50 [8]: > 20 µM
MIC [9]: > 20 µM

Nc1ccc(-c2nc3cc(C(F)(F)F)ccc3n2C23CC4CC(CC(C4)C2)C3)cc1
MIC [1]: > 20 µM
MIC [2]: > 20 µM
MIC [3]: > 20 µM
MIC [4]: > 20 µM
MIC [5]: > 20 µM
MIC [6]: > 20 µM
MIC [7]: > 20 µM
CC50 [8]: > 20 µM
MIC [9]: > 20 µM

COc1ccc(CNC(=O)C2CCN([C@H](C)c3cccc4ccccc34)CC2)cc1
MIC [1]: > 20 µM
MIC [2]: > 20 µM
MIC [3]: > 20 µM
MIC [4]: > 20 µM
MIC [5]: > 20 µM
MIC [6]: > 20 µM
MIC [7]: > 20 µM
CC50 [8]: > 20 µM
MIC [9]: > 20 µM

COc1ccc(OCc2ccc(COc3c(Cl)cccc3Cl)cc2)c(Cl)c1
MIC [1]: > 20 µM
MIC [2]: > 20 µM
MIC [3]: > 20 µM
MIC [4]: > 20 µM
MIC [5]: > 20 µM
MIC [6]: > 20 µM
MIC [7]: > 20 µM
CC50 [8]: > 20 µM
MIC [9]: > 20 µM

CCN1CCN(Cc2nc3ccc([N+](=O)[O-])cc3c(=O)n2-c2ccccc2F)CC1
MIC [1]: > 20 µM
MIC [2]: > 20 µM
MIC [3]: > 20 µM
MIC [4]: > 20 µM
MIC [5]: > 20 µM
MIC [6]: > 20 µM
MIC [7]: > 20 µM
CC50 [8]: > 20 µM
MIC [9]: > 20 µM

COc1ccc(-n2cnc3cc(NCc4ccco4)ccc32)cc1
MIC [1]: > 20 µM
MIC [2]: > 20 µM
MIC [3]: > 20 µM
MIC [4]: > 20 µM
MIC [5]: > 20 µM
MIC [6]: > 20 µM
MIC [7]: > 20 µM
CC50 [8]: > 20 µM
MIC [9]: > 20 µM

COc1cc(NS(=O)(=O)c2ccc(C)cc2)c2ncccc2c1
MIC [1]: > 20 µM
MIC [2]: > 20 µM
MIC [3]: > 20 µM
MIC [4]: > 20 µM
MIC [5]: > 20 µM
MIC [6]: > 20 µM
MIC [7]: > 20 µM
CC50 [8]: 5.41 µM
MIC [9]: > 20 µM

O=C(Nc1ccc(N2CCN(C(=O)c3ccccc3)CC2)cc1)c1ccc2c(c1)OCO2
MIC [1]: > 20 µM
MIC [2]: > 20 µM
MIC [3]: > 20 µM
MIC [4]: > 20 µM
MIC [5]: > 20 µM
MIC [6]: > 20 µM
MIC [7]: > 20 µM
CC50 [8]: > 20 µM
MIC [9]: > 20 µM

COCCn1cnc2c(O)nc(Nc3ccccc3)nc21
MIC [1]: > 20 µM
MIC [2]: > 20 µM
MIC [3]: > 20 µM
MIC [4]: > 20 µM
MIC [5]: > 20 µM
MIC [6]: > 20 µM
MIC [7]: > 20 µM
CC50 [8]: > 20 µM
MIC [9]: > 20 µM

CC(C)(C)c1ccc(C(Cn2cccc(C(F)(F)F)c2=O)NC2Cc3ccccc3C2)cc1 (stereo not given)
MIC [1]: > 20 µM
MIC [2]: > 20 µM
MIC [3]: > 20 µM
MIC [4]: > 20 µM
MIC [5]: > 20 µM
MIC [6]: > 20 µM
MIC [7]: > 20 µM
CC50 [8]: > 20 µM
MIC [9]: > 20 µM

Nc1nc(C(F)(F)F)cc2c1[nH]c(=O)n2Cc1ccccc1
MIC [1]: > 20 µM
MIC [2]: > 20 µM
MIC [3]: > 20 µM
MIC [4]: > 20 µM
MIC [5]: > 20 µM
MIC [6]: > 20 µM
MIC [7]: > 20 µM
CC50 [8]: > 20 µM
MIC [9]: > 20 µM

CCCCc1ccc(-c2nc(C)c(C(=O)OC)s2)cc1
MIC [1]: > 20 µM
MIC [2]: > 20 µM
MIC [3]: > 20 µM
MIC [4]: > 20 µM
MIC [5]: > 20 µM
MIC [6]: > 20 µM
MIC [7]: > 20 µM
CC50 [8]: > 20 µM
MIC [9]: > 20 µM

O=C(NCc1ccc(F)cc1)c1c(O)c2ncccc2[nH]c1=O
MIC [1]: > 20 µM
MIC [2]: > 20 µM
MIC [3]: > 20 µM
MIC [4]: > 20 µM
MIC [5]: > 20 µM
MIC [6]: > 20 µM
MIC [7]: > 20 µM
CC50 [8]: > 20 µM
MIC [9]: > 20 µM

O=C(c1nc2c(C(F)(F)F)cc(C3CC3)cn2c1Cl)N1CCN([C@H]2CC[C@H](O)CC2)C(=O)C1
MIC [1]: > 20 µM
MIC [2]: > 20 µM
MIC [3]: > 20 µM
MIC [4]: > 20 µM
MIC [5]: > 20 µM
MIC [6]: > 20 µM
MIC [7]: > 20 µM
CC50 [8]: > 20 µM
MIC [9]: > 20 µM

CCC[C@H](NC(=O)[C@@H]1[C@H]2CCC[C@H]2CN1C(=O)[C@@H](NC(=O)[C@@H](NC(=O)c1cnccn1)C1CCCCC1)C(C)(C)C)C(=O)C(=O)NC1CC1
MIC [1]: > 20 µM
MIC [2]: > 20 µM
MIC [3]: > 20 µM
MIC [4]: > 20 µM
MIC [5]: > 20 µM
MIC [6]: > 20 µM
MIC [7]: > 20 µM
CC50 [8]: > 20 µM
MIC [9]: > 20 µM

CN1CCN(Cc2ccc(-c3cnc4[nH]cc(-c5ccc6[nH]ccc6c5)c4c3)cc2)CC1
MIC [1]: > 20 µM
MIC [2]: > 20 µM
MIC [3]: > 20 µM
MIC [4]: > 20 µM
MIC [5]: > 20 µM
MIC [6]: > 20 µM
MIC [7]: > 20 µM
CC50 [8]: 5.33 µM
MIC [9]: > 20 µM

CC1(C)CC(NC(=O)C(=O)Nc2ccc(Cl)cc2)CC(C)(C)N1
MIC [1]: > 20 µM
MIC [2]: > 20 µM
MIC [3]: > 20 µM
MIC [4]: > 20 µM
MIC [5]: > 20 µM
MIC [6]: > 20 µM
MIC [7]: > 20 µM
CC50 [8]: > 20 µM
MIC [9]: > 20 µM

CCOc1ccc(/C=N/NC(=O)C2CC2c2ccc(C(C)(C)C)cc2)cc1OCC (stereo not given)
MIC [1]: > 20 µM
MIC [2]: > 20 µM
MIC [3]: > 20 µM
MIC [4]: > 20 µM
MIC [5]: > 20 µM
MIC [6]: > 20 µM
MIC [7]: > 20 µM
CC50 [8]: > 20 µM
MIC [9]: > 20 µM

O=C(O)CSc1cc(NS(=O)(=O)c2cccc3cccnc23)c2ccccc2c1O
MIC [1]: > 20 µM
MIC [2]: > 20 µM
MIC [3]: > 20 µM
MIC [4]: > 20 µM
MIC [5]: > 20 µM
MIC [6]: > 20 µM
MIC [7]: > 20 µM
CC50 [8]: > 20 µM
MIC [9]: > 20 µM

Nc1nc(-c2ccccc2)nc2[nH]nc(Nc3ccc(C(F)(F)F)cc3)c12
MIC [1]: > 20 µM
MIC [2]: > 20 µM
MIC [3]: > 20 µM
MIC [4]: > 20 µM
MIC [5]: > 20 µM
MIC [6]: > 20 µM
MIC [7]: > 20 µM
CC50 [8]: > 20 µM
MIC [9]: > 20 µM

Cc1c(F)cccc1NC(=O)Nc1ccc(Cl)c(S(=O)(=O)[C@H]2CCCNC2)c1O
MIC [1]: > 20 µM
MIC [2]: > 20 µM
MIC [3]: > 20 µM
MIC [4]: > 20 µM
MIC [5]: > 20 µM
MIC [6]: > 20 µM
MIC [7]: > 20 µM
CC50 [8]: 12 µM
MIC [9]: > 20 µM

CCCC1(C2CC2)c2cc(Cl)ccc2NC(=O)N1C (stereo not given)
MIC [1]: > 20 µM
MIC [2]: > 20 µM
MIC [3]: > 20 µM
MIC [4]: > 20 µM
MIC [5]: > 20 µM
MIC [6]: > 20 µM
MIC [7]: > 20 µM
CC50 [8]: > 20 µM
MIC [9]: > 20 µM

C/C(=N\NC(=O)C1CC1c1ccccc1)c1ccc(NC(=O)c2ccco2)cc1 (stereo not given)
MIC [1]: > 20 µM
MIC [2]: > 20 µM
MIC [3]: > 20 µM
MIC [4]: > 20 µM
MIC [5]: > 20 µM
MIC [6]: > 20 µM
MIC [7]: > 20 µM
CC50 [8]: > 20 µM
MIC [9]: > 20 µM

CC(C)C(=O)N[C@H]1[C@H]([C@H](O)[C@H](O)CO)OC(C(=O)O)=C[C@@H]1N=[N+]=[N-]
MIC [1]: > 20 µM
MIC [2]: > 20 µM
MIC [3]: > 20 µM
MIC [4]: > 20 µM
MIC [5]: > 20 µM
MIC [6]: > 20 µM
MIC [7]: > 20 µM
CC50 [8]: > 20 µM
MIC [9]: > 20 µM

Source: ChEMBL document CHEMBL4513161, “CO-ADD screening of MMV (CH) - Pandemic Response Box” (2021)
